Several values for one entry are separate records, joined by “and”; a condition that tells them apart may be missing. Equal entries are not always repeated.
System: TRPV ion channels
Assay: TRPV ion channel activity: 2-APB-induced intracellular calcium change in f11 nociceptive sensory cells (Fluo-4-AM)
Assay type: cell-based, white rats
Conditions: f11 cell lines pre-treated with the compound for 24 hours, then 2-APB
Experimental: To investigate the activity of the compound of Formula 1 isolated in Example 1, pain relief effects were evaluated. The pain relief was confirmed by identifying intracellular calcium levels and signaling pathways.
After f11 nociceptive sensory cell lines in white rats incubated with the compound of Formula 1 to 50% confluence for 24 hours were pretreated, TRPV ion channel activities were measured. The f11 cell lines were treated with 2-APB (2-aminoethoxydiphenyl borate) as a pre-activator for TRPV ion channels, and intracellular calcium changes, which are triggered in response to the 2-APB treatment, were evaluated using a Fluo-4-AM fluorescent dye on a real time basis.

Q: How did the “increase in the intracellular calcium level induced by 2-APB” value (Fluo-4-AM fluorescent dye, real time) turn out when `CC(C)c1ccc2c(c1)C=C[C@H]1[C@](C)(C(=O)O)CCC[C@]21C` [Formula 1, abieta-6,8,11,13-tetraaen-18-oic acid] was run?
A: strongly inhibited

Q: And the “intracellular calcium level after 2-APB treatment (tabulated data of FIG. 8, individual values)” value (Fluo-4-AM, compared with untreated control group)?
A: 1.1293 and 1.1714 and 1.1656 and 1.434 and 1.8663 and 1.3893 and 1.1031 and 1.2503 and 1.4131 and 1.3008 and 1.2251 and 1.1536 and 1.125 and 1.1572

From US20190125704A1, “PAIN RELIEF COMPOSITION” (priority 2016, published 2019)
